According to paper PMC6112750 (Oncotarget, 2018):

Biological target: T1, SUV39H2 (Homo sapiens, UniProt Q9H5I1)
T1 construct: N-terminal GST fused SUV39H2
Test: radiometric SPA methyltransferase assay with biotin-H3 ([…]-21) peptide and [3H]-SAM
Assay type: biochemical

T1 sequence (Q9H5I1 whole entry, the tested form may be a part): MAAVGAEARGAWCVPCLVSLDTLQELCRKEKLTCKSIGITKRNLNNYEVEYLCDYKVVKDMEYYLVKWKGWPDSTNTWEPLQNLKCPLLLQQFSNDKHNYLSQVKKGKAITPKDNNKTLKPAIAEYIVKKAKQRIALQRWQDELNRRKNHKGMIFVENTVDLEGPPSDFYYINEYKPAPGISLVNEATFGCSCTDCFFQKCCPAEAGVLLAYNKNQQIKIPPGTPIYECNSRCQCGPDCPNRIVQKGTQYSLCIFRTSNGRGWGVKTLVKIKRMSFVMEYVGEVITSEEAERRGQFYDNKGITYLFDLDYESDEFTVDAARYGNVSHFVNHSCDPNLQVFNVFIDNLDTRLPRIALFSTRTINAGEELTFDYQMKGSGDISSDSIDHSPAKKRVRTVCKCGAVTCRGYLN

COc1cc(OC)c(-c2cn3ccc(N[C@H]4CC[C@@H](NCc5ccc([N+](=O)[O-])cc5)CC4)cc3n2)cc1Cl [OTS193320, (1s,4s)-N^1-(2-(5-chloro-2,4-dimethoxyphenyl)imidazo[1,2-a]pyridin-7-yl)-N^4-(4-nitrobenzyl)cyclohexane-1,4-diamine]
IC50: 0.0222 µM
